# In patent US7060725B2, “Substituted sulfamate anticonvulsant derivatives” (Janssen Pharmaceutica N.V., priority 2002, dated 2006):
# How the values were obtained:
# [1] = system: maximal electroshock seizure (MES-induced seizure spread); assay: Maximal electroshock seizure (MES) test, mouse; format: in vivo, mice
# Description: Anticonvulsant activity was determined using the standard MES model for generalized tonic-clonic seizures (Swinyard E A, Woodhead J H, White H S, Franklin M R, In: Levy R H, Mattson R H, Meldrum B S, Penry J K, Dreifuss F E eds. Antiepileptic drugs. New York: Raven Press, 1989:85–102).
# An electric stimulus of 0.2 sec duration, 60 Hz, 50 mA in mice, 150 mA in rats, was delivered via corneal electrodes primed with an electrolyte solution containing an anesthetic agent (0.5% tetracaine hydrochloride in 0.9% saline).
# Mice or rats were randomly selected into control and test groups. The animals were dosed with vehicle or test compound, at varying concentrations. […] Rats were subjected to electrical stimulus at time intervals between 15 minutes and 4 hours following administration of test compound. Abolition of the hind limb tonic extensor component was an indication of the test compound's ability to inhibit MES-induced seizure spread.
# The ED50 (the calculated dose required to block the hindlimb tonic-extensor component of the maximal electroshock seizure in 50% of the animals tested) was calculated. A probit analysis (Finney D J. Probit Analysis. Cambridge, England: Cambridge University Press, 1971) was used to calculate the ED50.
# Following the mouse procedure described above, representative compounds of the instant invention were tested for biological activity in the mouse, with results as listed in Table 5. Mouse activity is listed as number of mice active/total number of mice tested @ time after administration of the test compound.
# [2] = system: simple and complex partial seizure and secondarily generalized seizures; settings: cited from earlier work
# [3] = system: maximal electroshock seizure (MES-induced seizure spread); assay: Maximal electroshock seizure (MES) test, rat; format: in vivo, rats; settings: for Rat Activity (oral) (number of rats active/total number of rats tested): 30 mg/kg
# Description: Anticonvulsant activity was determined using the standard MES model for generalized tonic-clonic seizures (Swinyard E A, Woodhead J H, White H S, Franklin M R, In: […], Meldrum […], Dreifuss F E eds. Antiepileptic drugs. New York: Raven Press, 1989:85-102). An electric stimulus of 0.2 sec duration, 60 Hz, 50 mA in mice, 150 mA in rats, was delivered via corneal electrodes primed with an electrolyte solution containing an anesthetic agent (0.5% tetracaine hydrochloride in 0.9% saline). Mice or rats were randomly selected into control and test groups. The animals were dosed with vehicle or test compound, at varying concentrations. Mice were subjected to the electrical stimulus at 30 minutes and 4 hours following administration of test compound. […] Abolition of the hind limb tonic extensor component was an indication of the test compound's ability to inhibit MES-induced seizure spread. […] A probit analysis (Finney D J. Probit Analysis. Cambridge, England: Cambridge University Press, 1971) was used to calculate the ED50. Following the rat procedure described above, representative compounds of the instant invention were tested for biological activity in the rat, with results as listed in Table 6 and 7. Rat activity is listed as number of rats active/total number of rats tested @ time after administration of the test compound.
# [4] = 100 mg/kg, @ 0.5 hrs after administration
smiles,measurement,setting,value
"CC1(C)O[C@@H]2[C@@H](CO[C@@]3(COS(N)(=O)=O)OC(C)(C)O[C@@H]23)O1 [TPM, 2,3:4,5-bis-O-(1-methylethylidene)-β-D-fructopyranose sulfamate, reference compound]",ED50,[1]; @ 2 hrs,ED50 = 33 m/k
same,efficacy in clinical trials of human epilepsy,[2],effective as adjunctive therapy or as monotherapy
CCC(=O)[N-]S(=O)(=O)OCC12OCC3OC(C)(C)OC3C1OC(C)(C)O2.[Na+] (centres unmarked) [Compound 19],Mouse Activity (number of mice active/total number of mice tested),[1]; [4],0/3 @ 0.5 hrs
same,Mouse Activity (number of mice active/total number of mice tested),"[1]; 100 mg/kg, @ 4 hrs after administration",3/3 @ 4 hrs
same,Mouse Activity (number of mice active/total number of mice tested),"[1]; 300 mg/kg, @ 0.5 hrs after administration",1/1 @ 0.5 hrs
same,Mouse Activity (number of mice active/total number of mice tested),"[1]; 300 mg/kg, @ 4 hrs after administration",1/1 @ 4 hrs
same,Mouse Activity,[1]; dosage 30 mg/kg,No activity
same,ED50,[3]; @ 4 hrs,11.22 @ 4 hrs m/k
same,Rat Activity (oral) (number of rats active/total number of rats tested),[3]; @ 0.25 hrs,1/4 @ 0.25 hrs
same,Rat Activity (oral) (number of rats active/total number of rats tested),[3]; @ 0.5 hrs,0/4 @ 0.5 hrs
same,Rat Activity (oral) (number of rats active/total number of rats tested),[3]; @ 1 hr,1/4 @ 1 hr
same,Rat Activity (oral) (number of rats active/total number of rats tested),[3]; @ 2 hrs,4/4 @ 2 hrs
same,Rat Activity (oral) (number of rats active/total number of rats tested),[3]; @ 4 hrs,4/4 @ 4 hrs
CC1(C)OC2COC3(COS(=O)(=O)NC(c4ccccc4)c4ccccc4)OC(C)(C)OC3C2O1 (centres unmarked) [Compound 37],Mouse Activity (number of mice active/total number of mice tested),[1]; [4],"0/3 @ ½ hr,"
same,Mouse Activity (number of mice active/total number of mice tested),"[1]; 100 mg/kg, @ 1 hr after administration","0/3 @ ½ hr,"
same,Mouse Activity (number of mice active/total number of mice tested),"[1]; 100 mg/kg, @ 2 hrs after administration","1/3 @ ¼ hrs,"
same,Mouse Activity (number of mice active/total number of mice tested),"[1]; 100 mg/kg, @ 6 hrs after administration","1/3 @ ¼ hrs,"
same,Mouse Activity (number of mice active/total number of mice tested),"[1]; 100 mg/kg, @ ¼ hrs after administration","1/3 @ ¼ hrs,"
same,Mouse Activity,[1]; dosage 30 mg/kg,No Activity
same,Mouse Activity,[1]; dosage 300 mg/kg,No activity
same,Rat Activity (oral) (number of rats active/total number of rats tested),[3]; @ 1 hr,1/4 @ 1 hr
same,Rat Activity (oral) (number of rats active/total number of rats tested),[3]; @ 2 hrs,2/4 @ 2 hrs
same,Rat Activity (oral) (number of rats active/total number of rats tested),[3]; @ 4 hrs,1/4 @ 4 hrs
CC1(C)OC2COC3(COS(=O)(=O)NCCBr)OC(C)(C)OC3C2O1 (centres unmarked) [Compound 3],Mouse Activity,"[1]; dosage 30, 100, 300 mg/kg",No Activity
same,Rat Activity (oral) (number of rats active/total number of rats tested),[3]; @ 1 hr,1/4 @ 1 hr
same,Rat Activity (oral) (number of rats active/total number of rats tested),[3]; @ 2 hrs,2/4 @ 2 hrs
